Test results reported in patent publication US8808737B2 (Endo Pharmaceuticals Inc., priority 2007, dated 2014).

Tests used:
[1] = in vivo; cited from earlier work
[2] = Example 5: correlation of oxymorphone and metabolite plasma AUC / oral clearance with creatinine clearance; format: in vivo, human; details: linear regression; for AUC/wt vs. CLCR: R-square / AUC/wt vs. CLCR: Slope: AUC normalized for body weight vs creatinine clearance; for AUC vs. CLCR: R-square / AUC vs. CLCR: Slope: plasma AUC vs creatinine clearance
Source text: Creatinine clearance (ClCR) was estimated at screening using the following Cockroft and Gault^8 equation: […]
All pharmacokinetic results are summarized using appropriate descriptive statistics.
The potential association between plasma AUC and creatinine clearance was explored using linear regression techniques and the results are summarized in Table 36 and FIG. 16.

[3] = Pain levels (VAS, categorical scale) vs plasma oxymorphone and 6-hydroxyoxymorphone after a single dose; format: in vivo, human; details: single dose of oxymorphone, FIGS. 1-4
Method: For these tests, pain was measured using a Visual Analog Scale (VAS) or a Categorical Scale. The VAS scales consisted of a horizontal line, 100 mm in length. The left-hand end of the scale (0 mm) was marked with the descriptor “No Pain” and the right-hand end of the scale (100 mm) was marked with the descriptor “Extreme Pain”. Patients indicated their level of pain by making a vertical mark on the line. The VAS score was equal to the distance (in mm) from the left-hand end of the scale to the patient's mark. For the categorical scale, patients completed the following statement, “My pain at this time is” using the scale None=0, Mild=1, Moderate=2, or Severe=3.

[4] = Example 5: urinary excretion of oxymorphone and metabolites after EN3202 in renal impairment; details: for Mean percentage of the administered dose excreted in the urine: 0-120 hours; for Mean (SD) Percent of Dose Recovered in Urine (0-120 hours): single oral 20-mg dose of EN3202; for half-life: human, urine, oral, 20 mg, Mean urinary elimination half-life; for Mean (SD) Ratio of Metabolite/Parent Excreted in Urine: parent = oxymorphone
Method: (§1) Attempts were made to match controls with the renal impaired patients with respect to age, gender, and weight. […] Naltrexone (50 mg) was administered on the evening prior to administration of the EN3202 dose.
Each subject was to be instructed to void at the end of each interval (so that each collection interval began with an empty bladder). The void prior to administration of the test medication (time 0) served as the pre-dose blank and was not be included in the collection container.
(§2) Plasma and urine pharmacokinetic variables were calculated from the concentration data using standard, non-compartmental methods as outlined in the following table.

[5] = Example 5: plasma pharmacokinetics of oxymorphone and metabolites after EN3202 in renal impairment vs healthy controls; details: for Mean bioavailability ratio (90% confidence interval) for AUC relative to controls / Mean bioavailability ratio (90% confidence interval) for Cmax relative to controls: ln-transformed; for AUC: AUC in plasma (mean, untransformed); for AUC / AUC(0-t) / Cmax / half-life / CLo, clearance after oral administration (mean) / t½, terminal elimination half-life in plasma (mean) / AUC in plasma (mean, untransformed) / Tmax in plasma (median) / AUCT in plasma (mean, untransformed) / Cmax in plasma (mean, untransformed) / Ke, terminal elimination rate constant in plasma (mean): single 20 mg dose of EN3202; for AUC(0-t): AUCT in plasma (mean, untransformed); for Cmax: Cmax in plasma (mean, untransformed); for half-life: t½, terminal elimination half-life in plasma (mean)
Method: as §1
In order to protect the subjects from potential opioid-related adverse events, a single 50-mg dose of the opioid antagonist ReVia® (naltrexone HCl) was administered at 20:00 the evening prior to administration of test medication. […] Subjects continued fasting until four (4) hours after dose administration. The subjects remained in an upright posture (sitting or standing) for 1 hour after dose administration. All doses were administered with 240 mL of water (room temperature), and the subjects were instructed to drink all the water.
as §2
All pharmacokinetic results are summarized using appropriate descriptive statistics. Continuous variables were compared between renally impaired and control groups using appropriate parametric statistics. 90% confidence intervals were calculated for the differences or ratios between the renally impaired and control groups. In addition, the association between oral clearance (and other pharmacokinetic variables) and the severity of renal insufficiency (based on creatinine clearance) was explored.

[6] = oral clearance vs creatinine clearance
[7] = EN3202 20 mg, severe renal impairment
[8] = EN3202 20 mg, mild renal impairment
[9] = EN3202 20 mg, moderate renal impairment
[10] = subjects with mild renal impairment
[11] = subjects with moderate renal impairment
[12] = subjects with severe renal impairment
[13] = human, plasma, oral, 20 mg, Healthy Controls
[14] = human, plasma, oral, 20 mg, Mild Impairment
[15] = human, plasma, oral, 20 mg, Moderate Impairment
[16] = human, plasma, oral, 20 mg, Severe Impairment

SMILES: CN1CC[C@]23c4c5ccc(O)c4O[C@H]2C(=O)CC[C@@]3(O)[C@H]1C5 [Oxymorphone, 14-hydroxydihydromorphinone, reference compound]
- Oral bioavailability [1]: about 10%
- AUC/wt vs. CLCR: R-square [2]: 0.2898
- AUC/wt vs. CLCR: Slope [2]: −0.0013
- CL/F vs. CLCR: R-square [2, 6]: 0.2592
- CL/F vs. CLCR: Slope [2, 6]: 0.1229
- AUC vs. CLCR: R-square [2]: 0.2400
- AUC vs. CLCR: Slope [2]: −0.1852
- Relation between pain relief and blood plasma level [3]: there is a correlation
- Mean percentage of the administered dose excreted in the urine [4, 7]: 0.38%
- Mean percentage of the dose excreted in the urine unchanged, reduced relative to healthy controls [4, 7]: approximately 50%
- Mean (SD) Percent of Dose Recovered in Urine (0-120 hours) ([4]; healthy controls): 0.77 (0.36) %
- half-life ([4]; EN3202 20 mg, healthy controls): 12.5 h
- half-life [4, 8]: 12.1 h
- half-life [4, 9]: 13.9 h
- half-life [4, 7]: 21 h
- Mean (SD) Percent of Dose Recovered in Urine (0-120 hours) [4, 10]: 1.37 (2.10) %
- Mean (SD) Percent of Dose Recovered in Urine (0-120 hours) [4, 11]: 0.66 (0.29) %
- Mean (SD) Percent of Dose Recovered in Urine (0-120 hours) [4, 12]: 0.38 (0.19) %
- Mean bioavailability ratio (90% confidence interval) for AUC relative to controls [5, 8]: 1.2559 (0.8566-1.8414)
- Mean bioavailability ratio (90% confidence interval) for Cmax relative to controls [5, 8]: 1.3772 (0.9359-2.0265)
- Mean bioavailability ratio (90% confidence interval) for AUC relative to controls [5, 9]: 1.5722 (1.0723-2.3051)
- Mean bioavailability ratio (90% confidence interval) for Cmax relative to controls [5, 9]: 1.6494 (1.1209-2.4270)
- Mean AUC increased relative to healthy controls [5, 7]: 1.7 fold
- Mean bioavailability ratio (90% confidence interval) for AUC relative to controls [5, 7]: 1.6529 (1.1274-2.4234)
- Mean bioavailability ratio (90% confidence interval) for Cmax relative to controls [5, 7]: 1.8042 (1.2261-2.6549)
- Mean increase in plasma AUC values relative to healthy controls ([5]; EN3202 20 mg, subjects with creatinine clearance values, 30 mL/min): approximately 1.8 fold
- Tmax ([5]; human, plasma, oral, 20 mg): 3.5 h
- AUC [5, 13]: 18.9 ng·h/mL
- AUC [5, 14]: 21.7 ng·h/mL
- AUC [5, 15]: 27.9 ng·h/mL
- AUC [5, 16]: 34.5 ng·h/mL
- AUC(0-t) [5, 13]: 15.8 ng·h/mL
- AUC(0-t) [5, 14]: 19 ng·h/mL
- AUC(0-t) [5, 15]: 26.1 ng·h/mL
- AUC(0-t) [5, 16]: 29.7 ng·h/mL
- Cmax [5, 13]: 1.16 ng/mL
- Cmax [5, 14]: 1.47 ng/mL
- Cmax [5, 15]: 1.75 ng/mL
- Cmax [5, 16]: 2.04 ng/mL
- half-life [5, 13]: 13.5 h
- half-life [5, 14]: 12.4 h
- half-life [5, 16]: 13.3 h
- CLo, clearance after oral administration (mean) ([5]; Healthy Controls): 22.07 L/min
- CLo, clearance after oral administration (mean) ([5]; Mild Impairment): 16.14 L/min
- CLo, clearance after oral administration (mean) ([5]; Moderate Impairment): 13.53 L/min
- t½, terminal elimination half-life in plasma (mean) ([5]; Moderate Impairment): 9.92 h
- AUC in plasma (mean, untransformed) ([5]; Severe Impairment): 32.46 ng·h/mL
- CLo, clearance after oral administration (mean) ([5]; Severe Impairment): 13.79 L/min
- Tmax in plasma (median) ([5]; Severe Impairment): 2.0 h

SMILES: CN1CC[C@]23c4c5ccc(O)c4O[C@H]2C(O)CC[C@@]3(O)[C@H]1C5 (some centres unmarked) [6-OH-oxymorphone, 6-hydroxy oxymorphone]
- AUC/wt vs. CLCR: R-square [2]: 0.1222
- AUC/wt vs. CLCR: Slope [2]: −0.0011
- AUC vs. CLCR: R-square [2]: 0.0977
- AUC vs. CLCR: Slope [2]: −0.1387
- Relation between pain relief and blood plasma level [3]: there is a correlation
- Mean percentage of the administered dose excreted in the urine [4, 7]: 0.16%
- Mean urinary elimination half-life ([4]; EN3202 20 mg, healthy controls): 22.8 h
- Mean urinary elimination half-life [4, 8]: 19.6 h
- Mean urinary elimination half-life [4, 9]: 22.4 h
- Mean urinary elimination half-life [4, 7]: 34.4 h
- Mean (SD) Ratio of Metabolite/Parent Excreted in Urine ([4]; healthy controls): 0.85 (0.27)
- Mean (SD) Percent of Dose Recovered in Urine (0-120 hours) ([4]; healthy controls): 0.62 (0.28) %
- Mean (SD) Ratio of Metabolite/Parent Excreted in Urine [4, 10]: 0.73 (0.45)
- Mean (SD) Percent of Dose Recovered in Urine (0-120 hours) [4, 10]: 0.49 (0.15) %
- Mean (SD) Ratio of Metabolite/Parent Excreted in Urine [4, 11]: 0.41 (0.22)
- Mean (SD) Percent of Dose Recovered in Urine (0-120 hours) [4, 11]: 0.26 (0.14) %
- Mean (SD) Ratio of Metabolite/Parent Excreted in Urine [4, 12]: 0.47 (0.42)
- Mean (SD) Percent of Dose Recovered in Urine (0-120 hours) [4, 12]: 0.16 (0.11) %
- Mean bioavailability ratio (90% confidence interval) for AUC relative to controls [5, 8]: 0.9953 (0.6153-1.6100)
- Mean bioavailability ratio (90% confidence interval) for Cmax relative to controls [5, 8]: 1.4818
- Mean bioavailability ratio (90% confidence interval) for AUC relative to controls [5, 9]: 0.9445 (0.5839-1.5279)
- Mean bioavailability ratio (90% confidence interval) for AUC relative to controls [5, 7]: 1.3862 (0.8569-2.2423)
- AUC in plasma (mean, untransformed) ([5]; Healthy Controls): 19.76 ng·h/mL
- AUCT in plasma (mean, untransformed) ([5]; Healthy Controls): 14.95 ng·h/mL
- Cmax in plasma (mean, untransformed) ([5]; Healthy Controls): 0.70 ng/mL
- Ke, terminal elimination rate constant in plasma (mean) ([5]; Healthy Controls): 0.0449
- Tmax in plasma (median) ([5]; Healthy Controls): 1.5 h
- t½, terminal elimination half-life in plasma (mean) ([5]; Healthy Controls): 22.20 h
- AUC in plasma (mean, untransformed) ([5]; Mild Impairment): 18.57 ng·h/mL
- AUCT in plasma (mean, untransformed) ([5]; Mild Impairment): 14.26 ng·h/mL
- Cmax in plasma (mean, untransformed) ([5]; Mild Impairment): 0.99 ng/mL
- Ke, terminal elimination rate constant in plasma (mean) ([5]; Mild Impairment): 0.0451
- Tmax in plasma (median) ([5]; Mild Impairment): 1.5 h
- t½, terminal elimination half-life in plasma (mean) ([5]; Mild Impairment): 18.04 h
- AUC in plasma (mean, untransformed) ([5]; Moderate Impairment): 17.64 ng·h/mL
- AUCT in plasma (mean, untransformed) ([5]; Moderate Impairment): 11.70 ng·h/mL
- Cmax in plasma (mean, untransformed) ([5]; Moderate Impairment): 0.76 ng/mL
- Ke, terminal elimination rate constant in plasma (mean) ([5]; Moderate Impairment): 0.0312
- Tmax in plasma (median) ([5]; Moderate Impairment): 2.5 h
- t½, terminal elimination half-life in plasma (mean) ([5]; Moderate Impairment): 27.82 h
- AUC in plasma (mean, untransformed) ([5]; Severe Impairment): 32.04 ng·h/mL
- AUCT in plasma (mean, untransformed) ([5]; Severe Impairment): 26.48 ng·h/mL
- Cmax in plasma (mean, untransformed) ([5]; Severe Impairment): 0.99 ng/mL
- Ke, terminal elimination rate constant in plasma (mean) ([5]; Severe Impairment): 0.0349
- Tmax in plasma (median) ([5]; Severe Impairment): 2.0 h
- t½, terminal elimination half-life in plasma (mean) ([5]; Severe Impairment): 26.53 h
